This test deals with T1, hFXR (Homo sapiens, UniProt Q96RI1).
T1 construct: expressed in transfected cells; host or cells: CV-1 cells
T1 sequence (Q96RI1 1-486): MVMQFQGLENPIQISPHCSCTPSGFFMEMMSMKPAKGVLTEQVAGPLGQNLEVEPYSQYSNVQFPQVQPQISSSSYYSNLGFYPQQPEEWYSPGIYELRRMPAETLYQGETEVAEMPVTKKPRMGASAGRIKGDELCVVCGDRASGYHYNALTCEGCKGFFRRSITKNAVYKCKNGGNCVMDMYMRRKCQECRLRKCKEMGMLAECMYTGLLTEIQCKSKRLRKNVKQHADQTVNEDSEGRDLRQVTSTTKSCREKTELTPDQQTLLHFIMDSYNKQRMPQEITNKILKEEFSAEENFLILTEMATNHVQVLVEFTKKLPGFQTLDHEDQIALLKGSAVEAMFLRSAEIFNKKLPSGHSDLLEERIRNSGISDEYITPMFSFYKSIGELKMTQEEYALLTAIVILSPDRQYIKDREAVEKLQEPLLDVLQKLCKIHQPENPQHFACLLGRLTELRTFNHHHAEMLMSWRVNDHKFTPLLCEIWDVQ
T1 sequence (P19793 1-462 partner): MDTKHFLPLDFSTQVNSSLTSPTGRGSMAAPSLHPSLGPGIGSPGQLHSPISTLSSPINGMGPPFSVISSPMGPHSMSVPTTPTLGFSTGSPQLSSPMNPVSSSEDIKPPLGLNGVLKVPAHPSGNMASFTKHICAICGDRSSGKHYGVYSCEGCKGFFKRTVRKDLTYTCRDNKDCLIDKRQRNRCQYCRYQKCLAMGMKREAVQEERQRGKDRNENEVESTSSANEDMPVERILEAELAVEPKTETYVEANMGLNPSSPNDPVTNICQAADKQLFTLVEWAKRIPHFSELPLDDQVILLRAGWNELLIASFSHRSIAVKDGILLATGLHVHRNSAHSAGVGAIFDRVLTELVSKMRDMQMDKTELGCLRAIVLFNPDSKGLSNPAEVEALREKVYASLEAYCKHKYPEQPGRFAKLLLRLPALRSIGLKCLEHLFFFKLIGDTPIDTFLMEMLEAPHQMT
The test can be described thus: In Vitro FXR Assay (TK): TK-ECRE-luc reporter in transfected CV-1 cells. It is filed as cell-based. The conditions noted are these: 18 hrs incubation, luminescence. Here is the method: Example B-1: In Vitro FXR Assay (TK)
CV-1 cells were seeded at a density of 2,000,000 cells in a T175 flask with DMEM+10% charcoal double-stripped FBS and incubated at 37° C. in 5% CO2 for 18 h (O/N).
After 18 h of incubation, the medium in the T175 flask was changed with fresh DMEM+10% charcoal super-stripped serum. In a polypropylene tube, 2500 μL OptiMEM (Life Technologies, Cat #31985-062) was combined with expression plasmids for hFXR, hRXR, TK-ECRE-luc and pCMX-YFP. The tube was then briefly vortexed and incubated at room temperature for 5 minutes. Transfection reagent (X-tremeGENE HP from Roche, Cat #06 366 236 001) was added to the OptiMEM/plasmid mixture vortexed and incubated at room temperature for 20 minutes. Following incubation, the transfection reagent/DNA mixture complex was added to cells in the T175 flask and the cells were incubated at 37° C. in 5% CO2 for 18 h (O/N).
Compounds were serially diluted in DMSO and added to transfected CV-1 cells. The cells were then incubated for 18 hrs. The next day cells were lysed and examined for luminescence.
`COc1ccc([C@H]2CC[C@H](CN(c3cccc(-c4cnn(C(C)C)c4)c3)C(=O)[C@H]3CC[C@H](NC(=O)OCCO)CC3)CC2)cc1C` [Compound 6.03, 2-Hydroxyethyl (trans-4-((3-(1-isopropyl-1H-pyrazol-4-yl)phenyl)((trans-4-(4-methoxy-3-methylphenyl)cyclohexyl)meth-yl)carbamoyl)cyclohexyl)carbamate] had an EC50 of at most 50 nM.
With `COc1ccc([C@H]2CC[C@H](CN(c3cccc(-c4cnn(C(C)C)c4)c3)C(=O)[C@H]3CC[C@H](OC(=O)NCC(C)(F)F)CC3)CC2)cc1C` [Compound 5.06, trans-4-((3-(1-Isopropyl-1H-pyrazol-4-yl)phenyl)(((trans)-4-(4-methoxy-3-methylphenyl)cyclohexyl)methyl)carbamoyl)cyclohexyl (2,2-difluoropropyl)carbamate], the EC50 is at most 50 nM.
The figure for `COc1ccc(C23CCC(CN(c4cc(-c5coc(C(C)C)n5)ccn4)C(=O)[C@H]4CC[C@H](OC(=O)N5CC(S(C)(=O)=O)C5)CC4)(CC2)CC3)cc1C` [Compound 23.03, 4-((4-(2-Isopropyloxazol-4-yl)pyridin-2-yl)((4-(4-methoxy-3-methylphenyl)bicyclo[2.2.2]octan-1-yl)methyl)carbamoyl)(trans-cyclohexyl) 3-(methylsulfonyl)azetidine-1-carboxylate] is at most 50 nM.
The molecule `COc1ccc(C23CCC(CN(c4cc(-c5cnn(C(C)C)c5)c(Cl)cn4)C(=O)[C@H]4CC[C@H](OC(=O)N5CC(O)C5)CC4)(CC2)CC3)cc1C` [Compound 26.01, 4-((5-Chloro-4-(1-isopropyl-1H-pyrazol-4-yl)pyridin-2-yl)((4-(4-methoxy-3-methylphenyl)bicyclo[2.2.2]octan-1-yl)methyl)carbamoyl)(trans-cyclohexyl) 3-hydroxyazetidine-1-carboxylate] yielded an EC50 of at most 50 nM.
For `COc1ncc([C@H]2CC[C@H](CN(c3cc(-c4cnn(C(C)C)c4)ccn3)C(=O)[C@H]3CC[C@H](OC(=O)N4CCN(C)CC4)CC3)CC2)cc1Cl` [Compound 1.09, trans-4-((((trans)-4-(5-Chloro-6-methoxypyridin-3-yl)cyclohexyl)methyl)(4-(1-isopropyl-1H-pyrazol-4-yl)pyridin-2-yl)carbamoyl)cyclohexyl 4-methylpiperazine-1-carboxylate], the concentration for a half-maximal effect (EC50) is at most 50 nM.
Molecule `COc1ccc(C23CCC(CN(c4cc(-n5ccc(C(C)C)n5)ccn4)C(=O)[C@H]4CC[C@H](OC(=O)N5CC(O)C5)CC4)(CC2)CC3)cc1C` [Compound 23.15, 4-((4-(3-Isopropyl-1H-pyrazol-1-yl)pyridin-2-yl)((4-(4-methoxy-3-methylphenyl)bicyclo[2.2.2]octan-1-yl)methyl)carbamoyl)cyclo-hexyl trans-3-hydroxyazetidine-1-carboxylate] returned a 50% effective concentration (EC50) of at most 50 nM.
`COc1ccc(C23CCC(CN(c4cc(-c5cnn(C(C)C)c5)ccn4)C(=O)[C@H]4CC[C@H](OC(=O)N5CC(C(C)(C)O)C5)CC4)(CC2)CC3)cc1C` [Compound 4.42, 4-((4-(1-Isopropyl-1H-pyrazol-4-yl)pyridin-2-yl) ((4-(4-methoxy-3-methylphenyl)bicyclo [2.2.2]octan-1-yl)methyl)carbamoyl)cyclohexyl trans-3-(2-hydroxypropan-2-yl)azetidine-1-carboxylate] had an EC50 of at most 50 nM.
Consider `COc1ccc([C@H]2CC[C@H](CN(c3cccc(-c4cnn(C(C)C)c4)c3)C(=O)[C@H]3CC[C@H](CNC(=O)C(C)C)CC3)CC2)cc1C` [Compound 12.02, (trans)-4-(Isobutyramidomethyl)-i-(3-(1-isopropyl-1H-pyrazol-4-yl)phenyl)-N-(((trans)-4-(4-methoxy-3-methylphenyl)cyclohexyl)methyl) cyclohexanecarboxamide], for which the EC50 was in the range of 50 to 1000 nM.
The molecule `COc1ccc(C23CCC(CN(c4cc(-c5cc(C(C)C)on5)ccn4)C(=O)[C@H]4CC[C@H](OC(=O)N5CC(O)C5)CC4)(CC2)CC3)cc1C` [Compound 4.27, 4-((4-(5-Isopropylisoxazol-3-yl)pyridin-2-yl)((4-(4-methoxy-3-methylphenyl)bicyclo[2.2.2]octan-1-yl)methyl)carbamoyl) cyclohexyl 3-hydroxyazetidine-trans-1-carboxylate] yielded a concentration for a half-maximal effect (EC50) of at most 50 nM.
Then `COc1ccc(C23CCC(CN(c4cc(-c5cnn(C(C)C)c5)c(F)cn4)C(=O)[C@H]4CC[C@H](OC(=O)N5CC(CS(C)(=O)=O)C5)CC4)(CC2)CC3)cc1C` [Compound 25.07, 4-((5-Fluoro-4-(1-isopropyl-1H-pyrazol-4-yl)pyridin-2-yl)((4-(4-methoxy-3-methylphenyl)bicyclo[2.2.2]octan-1-yl)methyl)carbamoyl)cyclohexyl trans-3-((methylsulfonyl)methyl)azetidine-1-carboxylate], with at most 50 nM; and `COc1ccc(C23CCC(CN(c4cc(-c5cnn(C(C)C)c5)ccn4)C(=O)[C@H]4CC[C@H](OC(=O)N5CC(C(C)C)C5)CC4)(CC2)CC3)cc1C` [Compound 23.12, 4-((4-(1-Isopropyl-1H-pyrazol-4-yl)pyridin-2-yl)((4-(4-methoxy-3-methylphenyl)bicyclo[2.2.2]oc-tan-1-yl)methyl)carbamoyl)cyclo-hexyl trans-3-isopropyl-azetidine-1-carboxylate], with at most 50 nM.
With `COc1c(C)cc(C23CCC(CN(c4cc(-c5cnn(C(C)C)c5)ccn4)C(=O)[C@H]4CC[C@H](OC(=O)N5CC(O)C5)CC4)(CC2)CC3)cc1C` [Compound 26.07, 4-((4-(1-Isopropyl-1H-pyrazol-4-yl)pyridin-2-yl)((4-(4-methoxy-3,5-dimethylphenyl)bicyclo[2.2.2]octan-1-yl)methyl)carbamoyl)cyclohexyl trans-3-hydroxyazetidine-1-carboxylate], the 50% effective concentration (EC50) was at most 50 nM.
Regarding `COc1ccc([C@H]2CC[C@H](CN(c3cccc(-c4cnn(C(C)C)c4)c3)C(=O)[C@H]3CC[C@H](OC(=O)NCC(C)(C)O)CC3)CC2)cc1C#N` [Compound 5.09, trans-4-((((trans)-4-(3-Cyano-4-methoxyphenyl)cyclohexyl)methyl)(3-(1-isopropyl-1H-pyrazol-4-yl)phenyl)carbamoyl) cyclohexyl(2-hydroxy-2-methylpropyl)carbamate], the EC50 is at most 50 nM.
In turn, `COc1ccc(C23CCC(CN(c4cc(-c5cnn(C(C)C)c5)ccn4)C(=O)[C@H]4CC[C@H](OC(=O)N5CC(C#N)C5)CC4)(CC2)CC3)cc1C` [Compound 4.45, 4-((4-(1-Isopropyl-1H-pyrazol-4-yl)pyridin-2-yl) ((4-(4-methoxy-3-methylphenyl)bicyclo [2.2.2]octan-1-yl)methyl)carbamoyl)cyclohexyl trans-3-cyanoazetidine-1-carboxylate] yielded an EC50 of at most 50 nM.
Molecule `COc1ccc([C@H]2CC[C@H](CN(c3cccc(-c4cnn(C(C)C)c4)c3)C(=O)[C@H]3CC[C@H](NC(=O)OC4CCOCC4)CC3)CC2)cc1C` [Compound 6.06, Tetrahydro-2H-pyran-4-yl (trans-4-((3-(1-isopropyl-1H-pyrazol-4-yl)phenyl)((trans-4-(4-methoxy-3-methylphenyl)cyclohexyl)meth-yl)carbamoyl)cyclohexyl)carbamate] yielded an EC50 of at most 50 nM.
The molecule `COc1ncc(C23CCC(CN(c4cc(-c5cnn(C(C)C)c5)ccn4)C(=O)[C@H]4CC[C@H](OC(=O)N5CC(O)C5)CC4)(CC2)CC3)cc1C` [Compound 26, 4-((4-(1-Isopropyl-1H-pyrazol-4-yl)pyridin-2-yl)((4-(6-methoxy-5-methylpyridin-3-yl)bicyclo[2.2.2]octan-1-yl)methyl)carbamoyl)cyclohexyl trans-3-hydroxyazetidine-1-carboxylate] gave a concentration for a half-maximal effect (EC50) of at most 50 nM.
The figure for `COc1ncc([C@H]2CC[C@H](CN(c3cc(-c4cnn(C(C)C)c4)ccn3)C(=O)[C@H]3CC[C@H](OC(=O)N4CCN(C)CC4)CC3)CC2)cc1C` [Compound 1.05, trans-4-((4-(1-Isopropyl-1H-pyrazol-4-yl)pyridin-2-yl)(((trans)-4-(6-methoxy-5-methylpyridin-3-yl)cyclohexyl)methyl)carbamoyl) cyclohexyl 4-methylpiperazine-1-carboxylate] is 50 to 1000 nM.

Values taken from US20220056019A1, “FARNESOID X RECEPTOR AGONISTS AND USES THEREOF” (Metacrine, Inc., priority 2018, published 2022).
